Data: patent US20060252670A1, “Method of reducing drug-induced adverse side effects in a patient” (Intercept Pharmaceuticals Inc., priority 2004, published 2006)
Like-named read-outs stand apart in the source and are kept apart here.

Key:
liver fibrosis = experiment: Gene expression in three rat models of liver fibrosis (porcine serum, BDL, CCl4) treated with FXR ligand; assay type: in vivo; conditions: rats, 3 mg/kg
Method: In order to further investigate whether in vivo administration of FXR ligands would modulate the expression of PPARγ, three different models of liver fibrosis were used, i.e., porcine serum administration, bile duct ligation (BDL), and CCL4 intoxication. Male Wistar rats (200-250 g) were obtained from Charles River Breeding Laboratories (Monza, Italy) and maintained on standard laboratory rat chow on a 12 hour light/dark cycle. […] (2004) Gastroenterology 14:1444-1356). […] At the end of the study, rats were sacrificed under anaesthesia with sodium pentobarbital (50 mg/kg, i.p.) and terminally bled via cardiac puncture. The liver was removed for examination and blood samples were taken. In the second model, hepatic fibrosis was induced by bile duct ligation (BDL) of 8-9 weeks old male Wistar rats (see Fiorucci et al. (2004) Gastroenterology 14:1444-1356 and Fiorucci et al. (2004) Hepatology 39:365-75). Sham operated rats (n=6) received the same laparoscopic procedure, except that the bile duct was manipulated, but not ligated and sectioned. A total of 24 animals were operated. […] Animals were then treated for 14 days. […] Control rats were injected i.p. with 100 μl/100 g body weight of paraffin oil alone.

[1] = tested on: primary cultures of rat HSCs; experiment: PPARγ expression in primary cultures of rat HSCs with FXR ligands (qRT-PCR, Western blot); assay type: cell-based
Method: However, whether or not FXR interacts with PPARγ, has so far been unknown. In order to investigate if FXR interacts with PPARγ, in vitro studies were performed on primary cultures of rat HSCs and HSC-T6 (i.e., a rat immortalised HSCs line). Primary rat HSCs were isolated from control and cirrhotic rats according to techniques known in the art. […] Cells were cultured at 37° C. in an atmosphere of 5% CO2 in Dulbecco's modified minimal essential medium (Gibco BRL Life Technologies, Rockville, Md.) containing 10% fetal calf serum (FCS), 2 mM L-glutamine, and 5,000 IU/ml penicillin/[…] streptomycin. […] HSCs were incubated with or without 6-ECDCA, 1 μM, for 24 hours at 37° C. in DMEM. […] The proteins were then transferred to nitrocellulose membranes (Biorad, Hercules, Calif.) and probed with primary antibodies to FXR and PPARγ (Santa Cruz Biotechnology, Santa Cruz, Calif.).
PPARγ expression normally decreases during HSC trans-differentiation. […] To further investigate whether ligands of FXR and PPARγ might cooperate in repressing α1 (1) collagen gene expression, HSC-T6 were exposed to effective concentrations of the two ligands.

[2] = tested on: liver fibrosis induced by porcine serum; experiment: Liver fibrosis induced by 8-week porcine serum administration to rats: 6-ECDCA, rosiglitazone and combination; assay type: in vivo, rat; conditions: for ALP / ALT / Bilirubin / Liver/b.w.: porcine serum rats, 8 weeks, mean ± SE
Method: To investigate whether 6-ECDCA was effective in regulating PPARγ expression, porcine serum-administered rats (6-8 each group) were randomized to receive 1 and 3 mg/kg 6-ECDCA via gavage 5 times a week. Control rats were administered 3% carboxy-methyl cellulose (CMC) by gavage. At the end of the study, rats were sacrificed under anaesthesia with sodium pentobarbital (50 mg/kg, i.p.) and terminally bled via cardiac puncture. The liver was removed for examination and blood samples were taken.
Groups and duration of treatment are described in Table 1 below. Animals were followed for 8 weeks.
Collagen surface density was quantified using a computerized image analysis system (Image Acquisition System Ver. 005, Delta Sistemi, Rome, Italy) (see Fiorucci et al., supra). Hepatic and urinary content of hydroxyproline were determined by HPLC (LC Varian Prostar HPLC, Varian, Rome, Italy) as described in Fiorucci et al. (supra). The ANOVA followed by Dunnett or Bonferroni correction for multiple comparison were applied when appropriate during statistical analysis. EC50 were calculated using Prism III (Graphpad Software. Inc., San Diego, Calif.).

[3] = cited from earlier work
[4] = Type II diabetic obese patient switched from rosiglitazone to 6ECDCA plus rosiglitazone; assay type: in vivo, human; conditions: rosiglitazone 8 mg daily 4 weeks then 4 mg daily 6 weeks by mouth
Method: The patient is started on a combination of 6ECDCA (150 mg) and rosiglitizone (2 mg) daily by mouth.

For `CC[C@H]1[C@@H](O)[C@@H]2[C@H](CC[C@]3(C)[C@@H]([C@H](C)CCC(=O)O)CC[C@@H]23)[C@@]2(C)CC[C@@H](O)C[C@@H]12` [6-ECDCA], the “increase of FXR mRNA” value (liver fibrosis) was 1.8 fold, the “increase of SHP mRNA” value (liver fibrosis) was 4 fold and the “increase in PPARγ mRNA and protein” value ([1]; primary HSCs grown seven days, 1 μM) was 40 fold. The “expression of selected pro-fibrogenetic markers (α-SMA, fibronectin, TGFP1)” value ([2]; 1 mg/kg) was “reduced”, the “histological score and liver hydroxyproline content” value ([2]; 1 mg/kg, in comparison to porcine serum alone) was “slightly reduced” and the “protection against development of liver fibrosis” value ([2]; 3 mg/kg) was “effectively protected”. The “increase of liver PPARγ mRNA” value ([2]; 3 mg/kg alone) was 3-4 fold, the “increase of hepatic expression of UCP-2” value ([2]; 3 mg/kg, P<0.05 versus control and porcine serum alone) was 2-4 fold and the “liver function as measured by plasma ALT, alkaline phosphatase and bilirubin” value ([2]; 1 and 3 mg/kg, P>0.05 versus control and porcine serum-treated rats) was “did not affect liver function”. For the same compound, the ALP ([2]; oral 1 mg/kg (each drug)) was 26.6 ± 2.5 U/dl, the ALT ([2]; oral 1 mg/kg (each drug)) was 47.4 ± 2.4 U/L and the Bilirubin ([2]; oral 1 mg/kg (each drug)) was 0.3 ± 0.01 mg/dL. It also gave a Liver/b.w. ([2]; oral 1 mg/kg (each drug)) of 3.8 ± 0.3%, an ALP ([2]; oral 3 mg/kg (each drug)) of 21.8 ± 5.2 U/dl and an ALT ([2]; oral 3 mg/kg (each drug)) of 41.9 ± 5.3 U/L. For the same compound, the Bilirubin ([2]; oral 3 mg/kg (each drug)) was 0.2 ± 0.01 mg/dL and the Liver/b.w. ([2]; oral 3 mg/kg (each drug)) was 2.9 ± 0.2%.
With `CC(C)c1onc(-c2c(Cl)cccc2Cl)c1COc1ccc(/C=C/c2cccc(C(=O)O)c2)c(Cl)c1` [GW4064, reference compound] the “downregulation of PPAR-γ caused by HSCs activation” value ([1]; primary HSCs) was “prevented the downregulation”.
In the case of `CCc1ccc(CCOc2ccc(CC3SC(=O)NC3=O)cc2)nc1` (centres unmarked) [pioglitazone], the “combined incidence of edema” value ([3]; 15 or 30 mg/day in combination with insulin (Rubin et al. 1999)) is listed as 15.3%.
In the case of `CN(CCOc1ccc(CC2SC(=O)NC2=O)cc1)c1ccccn1` (centres unmarked) [rosiglitazone], the incidence of edema ([3]; 4 mg/day in combination with insulin (Raskin et al. 2001)) is given as 13.1%, the incidence of edema ([3]; 8 mg/day in combination with insulin (Raskin et al. 2001)) is given as “about 16.2%” and the edema [4] is given as “signs of increasing peripheral edema”. The “weight gained since initiating TZD therapy” value [4] was 6 kg.
